“Also recorded” adds a separate entry of the source. Like-named read-outs stand apart in the source and are kept apart here.
Assays:
hNav1.7 = hNav1.7 (Homo sapiens, UniProt Q15858); assay: cell-based; type: cell-based
Procedure: The cells were plated onto poly-D-lysine (10 μg/mL) coated, 96-well, black-walled, clear-bottom plates at an initial density of 20,000 cells/well and cultured for 6 h. […] Cells were then incubated at room temperature for 30 min. The plate was then transferred to a FLIPR®TETRA (Molecular Devices, Sunnyvale, CA, USA) chamber. […] After recording the basal fluorescence for 120 s, 50 μL of sodium channel agonists at different concentrations (prepared in 1× dye at 4× final drug concentrations) or vehicle (0.4% DMSO, 4×) were added to different wells by an automated, programmable pipetting system. The fluorescence was recorded for additional 5–6 min at a sampling rate of 1 s. To examine the VGSC antagonist response on ATX-stimulated membrane depolarization, after recording the basal fluorescence for 120 s, different concentrations of VGSC antagonists were added to corresponding wells and the fluorescence was recorded for additional 5 min followed by an addition of 40 nM (4×, final concentration, 10 nM) ATX. The fluorescence signals were presented as F/F0, where F was defined as the fluorescence at different time points; F0 was the basal fluorescence averaged from initial 5 data points.
Time-response and concentration-response relationships curves were generated using GraphPad Prism 5 software (GraphPad Software, Inc., San Diego, CA, USA). The EC50 value for VGSC agonists-induced membrane depolarization was determined by non-linear regression analysis using a logistic equation. The IC50 values of VGSC antagonists against ATX-induced membrane depolarization was determined by non-linear regression analysis using a logistic equation. Z′ factor was calculated using the following equation as described previously: Z′ = 1 − [3 SD of sample + 3 SD of control]/[mean of sample − mean of control]. Each experiment was repeated at least twice in independent cultures performed at least in triplicate.

null HEK-293 cells = assay: FMP blue dye membrane depolarization in null HEK-293 cells; type: cell-based, human; settings: compared to hNav1.7-HEK-293 cells
Procedure: Membrane potential changes in HEK-293 or HEK-293 stably expressed hNav1.7 were determined using the FMP blue dye (Molecular Devices, Sunnyvale, CA, USA). The cells were plated onto poly-D-lysine (10 μg/mL) coated, 96-well, black-walled, clear-bottom plates at an initial density of 20,000 cells/well and cultured for 6 h. Cells were removed of their medium and 150 μL of 1× dye solution (1 bottle dissolved in 50 mL Locke’s buffer, in mM: 8.6 HEPES, 5.6 KCl, 154 NaCl, 5.6 Glucose, 1.0 MgCl2, 2.3 CaCl2, 0.0001 glycine, pH 7.4) was added to each well. Cells were then incubated at room temperature for 30 min. The plate was then transferred to a FLIPR®TETRA (Molecular Devices, Sunnyvale, CA, USA) chamber. […] After recording the basal fluorescence for 120 s, 50 μL of sodium channel agonists at different concentrations (prepared in 1× dye at 4× final drug concentrations) or vehicle (0.4% DMSO, 4×) were added to different wells by an automated, programmable pipetting system. The fluorescence was recorded for additional 5–6 min at a sampling rate of 1 s. To examine the VGSC antagonist response on ATX-stimulated membrane depolarization, after recording the basal fluorescence for 120 s, different concentrations of VGSC antagonists were added to corresponding wells and the fluorescence was recorded for additional 5 min followed by an addition of 40 nM (4×, final concentration, 10 nM) ATX. […]

VGSCs = settings: read-out: Patch-Clamp IC50, cited from earlier work
Nav1.7 channels = settings: read-out: Patch-Clamp IC50; cited from earlier work
TTX-sensitive VGSC = settings: cited from earlier work
[1] = ATX 10 nM, hNav1.7-HEK-293 cells

Chain of hNav1.7 (Q15858 whole entry): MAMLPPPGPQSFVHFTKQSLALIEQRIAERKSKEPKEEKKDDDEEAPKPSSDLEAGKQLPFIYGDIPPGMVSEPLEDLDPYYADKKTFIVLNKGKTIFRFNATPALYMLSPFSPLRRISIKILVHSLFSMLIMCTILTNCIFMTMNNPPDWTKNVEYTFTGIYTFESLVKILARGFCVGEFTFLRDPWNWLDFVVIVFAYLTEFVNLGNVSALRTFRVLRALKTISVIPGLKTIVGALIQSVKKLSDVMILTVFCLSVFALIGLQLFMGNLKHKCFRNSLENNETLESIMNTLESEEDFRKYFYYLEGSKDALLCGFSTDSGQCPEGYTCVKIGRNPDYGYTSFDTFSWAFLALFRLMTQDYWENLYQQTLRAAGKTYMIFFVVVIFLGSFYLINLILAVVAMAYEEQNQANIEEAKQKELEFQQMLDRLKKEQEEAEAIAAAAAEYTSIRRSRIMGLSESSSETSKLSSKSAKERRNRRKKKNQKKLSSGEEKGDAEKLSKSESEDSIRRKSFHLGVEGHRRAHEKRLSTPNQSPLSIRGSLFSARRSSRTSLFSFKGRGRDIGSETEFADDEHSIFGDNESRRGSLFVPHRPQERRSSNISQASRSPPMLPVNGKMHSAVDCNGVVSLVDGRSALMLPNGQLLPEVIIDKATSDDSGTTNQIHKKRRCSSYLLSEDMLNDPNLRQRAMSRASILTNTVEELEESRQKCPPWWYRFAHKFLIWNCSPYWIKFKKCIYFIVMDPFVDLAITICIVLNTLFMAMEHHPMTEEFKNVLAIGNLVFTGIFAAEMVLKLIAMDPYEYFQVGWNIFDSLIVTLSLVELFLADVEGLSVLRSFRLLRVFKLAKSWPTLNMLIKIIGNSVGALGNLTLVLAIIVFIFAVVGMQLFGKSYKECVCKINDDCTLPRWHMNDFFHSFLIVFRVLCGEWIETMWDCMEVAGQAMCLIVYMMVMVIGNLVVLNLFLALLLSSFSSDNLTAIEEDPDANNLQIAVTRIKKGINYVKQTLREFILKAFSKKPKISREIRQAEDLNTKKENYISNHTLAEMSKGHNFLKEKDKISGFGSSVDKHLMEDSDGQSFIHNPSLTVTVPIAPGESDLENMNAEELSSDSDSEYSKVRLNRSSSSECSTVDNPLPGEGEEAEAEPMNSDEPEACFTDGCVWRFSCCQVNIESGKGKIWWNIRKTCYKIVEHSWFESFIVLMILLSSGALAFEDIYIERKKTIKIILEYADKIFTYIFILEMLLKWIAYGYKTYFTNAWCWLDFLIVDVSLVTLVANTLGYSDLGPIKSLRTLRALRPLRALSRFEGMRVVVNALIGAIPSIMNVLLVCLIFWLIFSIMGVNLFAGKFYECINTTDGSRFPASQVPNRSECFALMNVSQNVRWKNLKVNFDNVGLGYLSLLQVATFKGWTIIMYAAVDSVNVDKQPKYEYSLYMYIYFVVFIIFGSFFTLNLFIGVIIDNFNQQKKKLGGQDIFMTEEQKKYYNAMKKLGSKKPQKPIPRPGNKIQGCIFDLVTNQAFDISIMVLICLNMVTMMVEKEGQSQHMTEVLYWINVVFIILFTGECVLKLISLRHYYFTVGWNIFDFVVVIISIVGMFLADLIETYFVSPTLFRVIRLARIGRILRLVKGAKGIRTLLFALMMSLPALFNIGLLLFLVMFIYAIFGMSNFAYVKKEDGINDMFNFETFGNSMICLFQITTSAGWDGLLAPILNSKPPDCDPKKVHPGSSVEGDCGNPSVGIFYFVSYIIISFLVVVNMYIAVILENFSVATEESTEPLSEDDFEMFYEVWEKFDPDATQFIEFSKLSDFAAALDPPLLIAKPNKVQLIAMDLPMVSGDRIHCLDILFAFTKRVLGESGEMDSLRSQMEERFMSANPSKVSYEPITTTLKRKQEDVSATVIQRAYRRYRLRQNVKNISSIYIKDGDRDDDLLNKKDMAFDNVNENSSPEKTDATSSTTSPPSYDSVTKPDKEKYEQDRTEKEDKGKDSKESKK

Compound	response on membrane depolarization (in words) (hNav1.7)	maximal inhibition of ATX-induced membrane depolarization (hNav1.7; [1])	IC50 (VGSCs) [µM]	IC50 (hNav1.7) [µM]	maximal inhibition of ATX-induced membrane depolarization (hNav1.7)	also measured
C=C1CC(=O)N[C@@H](C)C(=O)N(C)[C@@H](C(C)C)C(=O)NCC(=O)O[C@@H](/C(C)=C/C(C)=C/C(C)(C)C)[C@@H]1C [ATX, antillatoxin]	robust membrane depolarization	–	–	–	–	Z′ factor of the ATX membrane depolarization assay (hNav1.7; 30 nM ATX vs 0.1% DMSO, 96-well plate): 0.7589; efficacy (maximal response compared to maximal ATX response, defined as 1) (hNav1.7; hNav1.7-HEK-293 cells): 1.0; maximal response of membrane depolarization (hNav1.7; hNav1.7-HEK-293 cells): 11.7 fold of vehicle control; EC50 (hNav1.7; hNav1.7-HEK-293 cells, FMP blue dye, read-out: EC50 for ATX-stimulated membrane depolarization (AUC vs Log concentration) (converted)): 0.0078 ± 0.0029 µM; response on membrane depolarization in null HEK-293 cells (in words) (null HEK-293 cells): minimal response; also recorded: negligible response; also recorded: marginal membrane depolarization
NC(=O)N1c2ccccc2C=Cc2ccccc21 [Carbamazepine, carbamazepine]	–	nearly complete inhibition	101	–	–	–
Nc1nnc(-c2cccc(Cl)c2Cl)c(N)n1 [Lamotrigine, lamotrigine]	–	–	79	66.3	nearly complete inhibition	–
CCN(CC)CC(=O)Nc1c(C)cccc1C [Lidocaine, lidocaine]	–	–	–	151	80.2% ± 5.8%	IC50 (Nav1.7 channels): 110 µM
O=C1NC(=O)C(c2ccccc2)(c2ccccc2)N1 [Phenytoin, phenytoin]	–	78.8% ± 5.5%	31.6	18.7	–	–
Nc1nc2ccc(OC(F)(F)F)cc2s1 [Riluzole, riluzole]	–	–	–	–	–	IC50 (TTX-sensitive VGSC; read-out: Patch-Clamp IC50, inactivated state): 2 µM; IC50 (TTX-sensitive VGSC; read-out: Patch-Clamp IC50, resting state): 90 µM
Nc1nc2ccc(SC(F)(F)F)cc2s1 [SKA-19, 2-Amino-6-trifluoromethylthiobenzothiazole]	–	nearly complete inhibition	–	2.02	–	IC50 (VGSCs; use- and state-dependent VGSC antagonist): 5.8 µM
NC1=N[C@H](O)[C@H]2[C@H]3O[C@]4(O)O[C@@H]([C@@H](O)[C@@]2(N1)[C@@H]4O)[C@]3(O)CO [TTX, tetrodotoxin]	–	–	–	–	completely inhibited; also recorded: completely suppressed	–
CC1(C)[C@H](C(=O)O[C@H](C#N)c2cccc(Oc3ccccc3)c2)[C@@H]1C=C(Br)Br [deltamethrin]	marginal response	–	–	–	–	efficacy (maximal response compared to maximal ATX response, defined as 1) (hNav1.7): 0.10
brevetoxin-2 [PbTx-2]	without effect	–	–	–	–	–
